Experimental data from patent publication US20250051277A1, “DELIVERY OF THERAPEUTIC ALKALOID COMPOUNDS” (Sensorium Therapeutics, Inc., priority 2021, published 2025).
Like-named read-outs stand apart in the source and are kept apart here.

Experiments:
[1] = format: physicochemical; conditions: DI water, 25° C., 0.5 mM
[2] = format: physicochemical; conditions: SGF with pepsin, pH 1.5, 37° C., 0.5 mM

Structure (SMILES) | Condition 2 Conversion (%) ([1]; time 1 min) | Condition 2 Conversion (%) ([1]; time 5 min) | Condition 2 Conversion (%) ([1]; time 30 min) | Condition 2 Conversion (%) ([1]; time 1 h) | Condition 2 Conversion (%) ([1]; time 4 h) | Condition 2 Conversion (%) ([1]; time 24 h) | Condition 1 Conversion (%) ([2]; time 1 min) | Condition 1 Conversion (%) ([2]; time 5 min) | Condition 1 Conversion (%) ([2]; time 30 min) | Condition 1 Conversion (%) ([2]; time 1 h) | Condition 1 Conversion (%) ([2]; time 4 h) | Condition 1 Conversion (%) ([2]; time 24 h)
COc1ccc([C@@]23CCC(=NNC(=O)Nc4ccc(S(C)(=O)=O)cc4)C[C@@H]2N(C)CC3)cc1OC [Compound 255, 1-[[(3aS,7aS)-3a-(3,4-dimethoxyphenyl)-1-methyl-2,3,4,5,7,7a-hexahydroindol-6-ylidene]amino]-3-(4-methylsulfonylphenyl)urea] | 0 | 0 | 0 | 2.4 | 8.4 | 6 | 20.9 | 65.2 | 88.6 | 89.8 | 88.1 | 88
COc1ccc([C@@]23CCC(=NNCc4cccnc4)C[C@@H]2N(C)CC3)cc1OC [Compound 370, N-[[(3aS,7aS)-3a-(3,4-dimethoxyphenyl)-1-methyl-2,3,4,5,7,7a-hexahydroindol-6-ylidene]amino]-1-(3-pyridyl)methanamine] | 0 | 0 | 0 | 10 | 30 | 70 | 20 | 40 | 100 | 100 | 100 | 100
COc1ccc([C@@]23CCC(=NNc4cnccn4)C[C@@H]2N(C)CC3)cc1OC [Compound 365, N-[[(3aS,7aS)-3a-(3,4-dimethoxyphenyl)-1-methyl-2,3,4,5,7,7a-hexahydroindol-6-ylidene]amino]pyrazin-2-amine] | 0 | 0 | 10.11 | 11.33 | 12.6 | 17.4 | 0 | 8.9 | 47.1 | 77.4 | 94.1 | 100
COc1ccc([C@]23CCN(C)[C@H]2CC2(CC3)OCC(C(=O)O)O2)cc1OC (stereo partly drawn) [Compound 214, (3aS,7aS)-3a-(3,4-dimethoxyphenyl)-1-methyloctahydrospiro[indole-6,2′-[1,3]dioxolane]-4′-carboxylic acid] | 0 | 0 | 0 | 0 | 0 | 0 | 0 | 0 | 0 | 0 | 0 | 0
COc1ccc([C@@]23CCC(=NOCCON=C4CC[C@@]5(c6ccc(OC)c(OC)c6)CCN(C)[C@H]5C4)C[C@@H]2N(C)CC3)cc1OC [Compound 210, (3aS,7aS)-N-[2-[[(3aS,7aS)-3a-(3,4-dimethoxyphenyl)-1-methyl-2,3,4,5,7,7a-hexahydroindol-6-ylidene]amino]oxyethoxy]-3a-(3,4-dimethoxyphenyl)-1-methyl-2,3,4,5,7,7a-hexahydroindol-6-imine] | 0 | 0 | 0 | 0 | 0 | 0 | 0 | 0 | 3.48 | 7.51 | 14.75 | 15.35
CCCC1CO[C@@]2(CC[C@@]3(c4ccc(OC)c(OC)c4)CCN(C)C3C2)O1 (stereo partly drawn) [Compound 238, (2S,3′aS)-3′a-(3,4-dimethoxyphenyl)-1′-methyl-4-propyl-spiro[1,3-dioxolane-2,6′-2,3,4,5,7,7a-hexahydroindole]] |  |  |  |  |  |  | 0 | 0 | 0 | 0 | 0 | 0
CCCC1CO[C@]2(CC[C@@]3(c4ccc(OC)c(OC)c4)CCN(C)C3C2)O1 (stereo partly drawn) [Compound 212, (2R,3′aS)-3′a-(3,4-dimethoxyphenyl)-1′-methyl-4-propyl-spiro[1,3-dioxolane-2,6′-2,3,4,5,7,7a-hexahydroindole]] |  |  |  |  |  |  | 0 | 0 | 0 | 0 | 0 | 0
COc1ccc([C@]23CCN(C)[C@H]2CC2(CC3)OCC(c3ccc([N+](=O)[O-])cc3)O2)cc1OC (stereo partly drawn) [Compound 114, (3a'S,7a'S)-3a′-(3,4-dimethoxyphenyl)-1′-methyl-4-(4-nitrophenyl)octahydrospiro[[1,3]dioxolane-2,6′-indole]] |  |  |  |  |  |  | 0 | 0 | 0 | 0 | 0 | 0
COc1ccc([C@@]23CCC(=NNC(=O)c4ccncc4)C[C@@H]2N(C)CC3)cc1OC [Compound 157, N-[[(3aS,7aS)-3a-(3,4-dimethoxyphenyl)-1-methyl-2,3,4,5,7,7a-hexahydroindol-6-ylidene]amino]pyridine-4-carboxamide] |  |  |  |  |  |  | 100 | 100 | 100 | 100 | 100 | 100
COc1ccc([C@]23CCN(C)[C@H]2CC2(CC3)O[C@@H]([C@@H](O)Cn3c4nc(=O)[nH]c(=O)c-4nc4cc(C)c(C)cc43)[C@@H](CO)O2)cc1OC (stereo partly drawn) [Compound 196, 10-[(2S)-2-[(3′aS,4S,5R)-3′a-(3,4-dimethoxyphenyl)-5-(hydroxymethyl)-1′-methyl-spiro[1,3-dioxolane-2,6′-2,3,4,5,7,7a-hexahydroindole]-4-yl]-2-hydroxy-ethyl]-7,8-dimethyl-benzo[g]pteridine-2,4-dione] |  |  |  |  |  |  | 0 | 0 | 0 | 0 | 0 | 0
COc1ccc([C@]23CCN(C)[C@H]2CC2(CC3)OC[C@H]([C@@H](O)[C@@H](O)Cn3c4nc(=O)[nH]c(=O)c-4nc4cc(C)c(C)cc43)O2)cc1OC (stereo partly drawn) [Compound 174, 10-[(2S,3S)-3-[(3′aS,4R)-3′a-(3,4-dimethoxyphenyl)-1′-methyl-spiro[1,3-dioxolane-2,6′-2,3,4,5,7,7a-hexahydroindole]-4-yl]-2,3-dihydroxy-propyl]-7,8-dimethyl-benzo[g]pteridine-2,4-dione] |  |  |  |  |  |  | 0 | 0 | 0 | 0 | 0 | 0
